Source: PMC11561307, “Ultra-inert lanthanide chelates as mass tags for multiplexed bioanalysis” (Nature Communications, 2024)

Assay: Kinetic inertness: acid-assisted dechelation in excess HCl
Format: physicochemical
Conditions: for half-life / half-life, h: Figure 2A; for t½ (0.1 M HCl, 80 °C) / t½ (1.0 M HCl, 80 °C) / t½ (6.0 M HCl, 80 °C) / t½ (0.1 M HCl, 25 °C): dechelation half-life, HPLC-UV after 1 h, 1 day, 1 week, 1 month, ± error of the fit; for t½ (0.1 M HCl, 80 °C) / t½ (0.1 M HCl, 25 °C): 0.5 mM chelate in 0.1 M HCl; for t½ (0.1 M HCl, 80 °C) / t½ (1.0 M HCl, 80 °C) / t½ (0.1 M HCl, 25 °C): exponential decay fit; for t½ (1.0 M HCl, 80 °C): 0.5 mM chelate in 1.0 M HCl; for t½ (6.0 M HCl, 80 °C): 0.5 mM chelate in 6.0 M HCl, fit y = exp(−x/t), t½ = ln(2) × t; for abundance of intact chelate: section above Supp. Fig 16, head with acid, temperature and time not given

Row | SMILES | half-life (0.1 M HCl, 25 °C) [h] | half-life, h (0.1 M HCl, 80 °C) | half-life, h (1.0 M HCl, 80 °C) | half-life, h (6.0 M HCl, 80 °C) | t½ (0.1 M HCl, 80 °C) (80 °C) | t½ (1.0 M HCl, 80 °C) (80 °C) | t½ (6.0 M HCl, 80 °C) (80 °C) | half-life, h (0.1 M HCl, 25 °C) | half-life (0.1 M HCl, 80 °C) [h] | half-life (1.0 M HCl, 80 °C) [h] | half-life (6.0 M HCl, 80 °C) [h] | t½ (0.1 M HCl, 25 °C) (25 °C) | intact chelate (ratio NO2BnDOTA/[Lu(NO2BnDOTA)]) (0.1 M HCl at 80 °C after 1 h, HPLC-UV, initial and repeated injection identical) [%] | abundance of intact chelate [%] | estimated half-life (6.0 M HCl at 80 °C) [years]
1 | O=C([O-])CN1CCN2CCN(CC(=O)[O-])CCN(CC1)Cc1cccc(n1)-c1cnnn1Cc1cc(-c3ccccc3)cc(n1)C2.[Ce+3] [Ph{Ce}] | 16.5 | too unstable | too unstable | too unstable | too unstable | too unstable | too unstable |  |  |  |  |  |  |  | 
2 | O=C([O-])CN1CCN2CCN(CC(=O)[O-])CCN(CC1)Cc1cccc(n1)-c1cnnn1Cc1cc(-c3ccccc3)cc(n1)C2.[Gd+3] [Ph{Gd}] |  |  |  |  |  |  |  | too stable | 2470 | 30.4 | 0.17 | too stable |  |  | 
3 | O=C([O-])CN1CCN2CCN(CC(=O)[O-])CCN(CC1)Cc1cccc(n1)-c1cnnn1Cc1cc(-c3ccccc3)cc(n1)C2.[Nd+3] [Ph{Nd}] | 179 |  | too unstable | too unstable |  | too unstable | too unstable |  | 2.55 |  |  |  |  |  | 
4 | O=C([O-])CN1CCN2CCN(CC(=O)[O-])CCN(CC1)Cc1cccc(n1)-c1cnnn1Cc1cc(-c3ccccc3)cc(n1)C2.[La+3] [Ph{La}] | 2.48 | too unstable | too unstable | too unstable | too unstable | too unstable | too unstable |  |  |  |  |  |  |  | 
5 | O=C([O-])CN1CCN2CCN(CC(=O)[O-])CCN(CC1)Cc1cccc(n1)-c1cnnn1Cc1cc(-c3ccccc3)cc(n1)C2.[Sm+3] [Ph{Sm}] | 13400 |  |  | too unstable |  |  | too unstable |  | 111 | 1.46 |  |  |  |  | 
6 | O=C([O-])CN1CCN(CC(=O)[O-])CCN(CC(=O)[O-])C(Cc2ccc([N+](=O)[O-])cc2)CN(CC(=O)[O-])CC1.[Lu+3] (stereo not drawn) [[Lu(NO2BnDOTA)], reference compound] |  |  |  |  |  |  | too unstable |  |  |  |  |  | 76 |  | 
7 | O=C([O-])CN1CCN2CCN(CC(=O)[O-])CCN(CC1)Cc1cccc(n1)-c1cnnn1Cc1cc(-c3ccccc3)cc(n1)C2.[Er+3] [Ph{Er}] |  | too stable |  |  | too stable |  |  | too stable |  | 59200 | 343 | too stable |  | 100.0 | 
8 | O=C([O-])CN1CCN2CCN(CC(=O)[O-])CCN(CC1)Cc1cccc(n1)-c1cnnn1Cc1cc(-c3ccccc3)cc(n1)C2.[Ca+2] [Ph{Ca}] |  |  |  |  | too unstable | too unstable | too unstable |  |  |  |  |  |  | 38.9 | 
9 | O=C([O-])CN1CCN2CCN(CC(=O)[O-])CCN(CC1)Cc1cccc(n1)-c1cnnn1Cc1cc(-c3ccccc3)cc(n1)C2.[Ho+3] [Ph{Ho}] |  | too stable |  |  | too stable |  |  | too stable |  | 13200 | 68.2 | too stable |  | 100.0 | 
10 | O=C([O-])CN1CCN2CCN(CC(=O)[O-])CCN(CC1)Cc1cccc(n1)-c1cn(nn1)Cc1cc(-c3ccccc3)cc(n1)C2.[Lu+3] [1,4-cz-[Lu(PhL1)]] |  |  |  |  | too unstable | too unstable | too unstable |  |  |  |  |  |  | 98.7 | 
11 | O=C([O-])CN1CCN2CCN(CC(=O)[O-])CCN(CC1)Cc1cccc(n1)-c1cn(nn1)Cc1cc(-c3ccccc3)cc(n1)C2.[Gd+3] [1,4-cz-[Gd(PhL1)]] |  |  |  |  | too unstable | too unstable | too unstable |  |  |  |  |  |  | 97.8 | 
12 | O=C([O-])CN1CCN2CCN(CC(=O)[O-])CCN(CC1)Cc1cccc(n1)-c1cnnn1Cc1cc(-c3ccccc3)cc(n1)C2.[Dy+3] [Ph{Dy}] |  |  |  |  |  |  |  | too stable | 95000 | 3500 | 12 | too stable |  | 100.0 | 
13 | O=C([O-])CN1CCN2CCN(CC(=O)[O-])CCN(CC1)Cc1cccc(n1)-c1cnnn1Cc1cc(-c3ccccc3)cc(n1)C2.[Yb+3] [Ph{Yb}] |  | too stable | too stable |  | too stable | too stable |  | too stable |  |  | 4690 | too stable |  | 100.0 | 
14 | O=C([O-])CN1CCN2CCN(CC(=O)[O-])CCN(CC1)Cc1cccc(n1)-c1cnnn1Cc1cc(-c3ccccc3)cc(n1)C2.[Tb+3] [Ph{Tb}] |  |  |  |  |  |  |  | too stable | 31700 | 372 | 2.1 | too stable |  |  | 
15 | O=C([O-])CN1CCN2CCN(CC(=O)[O-])CCN(CC1)Cc1cccc(n1)-c1cnnn1Cc1cc(-c3ccccc3)cc(n1)C2.[Tm+3] [Ph{Tm}] |  | too stable | too stable |  | too stable | too stable |  | too stable |  |  | 1360 | too stable |  | 100.0 | 
16 | O=C([O-])CN1CCN2CCN(CC(=O)[O-])CCN(CC1)Cc1cccc(n1)-c1cnnn1Cc1cc(-c3ccccc3)cc(n1)C2.[Eu+3] [Ph{Eu}] |  |  |  | too unstable |  |  | too unstable | too stable | 380 | 7.3 |  | too stable |  |  | 
17 | O=C([O-])CN1CCN2CCN(CC(=O)[O-])CCN(CC1)Cc1cccc(n1)-c1cnnn1Cc1cc(-c3ccccc3)cc(n1)C2.[Pr+3] [Ph{Pr}] | 51.7 |  | too unstable | too unstable |  | too unstable | too unstable |  | 0.467 |  |  |  |  |  | 
18 | O=C([O-])CN1CCN2CCN(CC(=O)[O-])CCN(CC1)Cc1cccc(n1)-c1cnnn1Cc1cc(-c3ccccc3)cc(n1)C2.[Y+3] [Ph{Y}] |  |  |  |  |  |  |  |  |  |  |  | too stable |  | 100.0 | 
19 | O=C([O-])CN1CCN(CC(=O)[O-])CCN(CC(=O)[O-])C(Cc2ccc([N+](=O)[O-])cc2)CN(CC(=O)[O-])CC1.[La+3] (stereo not drawn) [[La(NO2BnDOTA)], reference compound] |  |  |  |  |  | too unstable | too unstable |  |  |  |  |  |  |  | 
20 | O=C([O-])CN1CCN(CC(=O)[O-])CCN(CC(=O)[O-])C(Cc2ccc([N+](=O)[O-])cc2)CN(CC(=O)[O-])CC1.[Gd+3] (stereo not drawn) [[Gd(NO2BnDOTA)], reference compound] |  |  |  |  |  |  | too unstable |  |  |  |  |  |  |  | 
21 | O=C([O-])CN1CCN2CCN(CC(=O)[O-])CCN(CC1)Cc1cccc(n1)-c1cnnn1Cc1cc(-c3ccccc3)cc(n1)C2.[Lu+3] [Ph{Lu}] |  | too stable | too stable |  | too stable | too stable |  | too stable |  |  | 25300 | too stable |  | 100.0 | ~3
